Measured values taken from ChEMBL document CHEMBL3784977, “Acetylcholinesterase and carbonic anhydrase inhibitory properties of novel urea and sulfamide derivatives incorporating dopaminergic 2-aminotetralin scaffolds” (Bioorg Med Chem, 2016).

Tests used:
Acetylcholinesterase [1] = biological target: T1, Acetylcholinesterase (Homo sapiens, UniProt P22303)
Description: Inhibition of AChE (unknown origin) using acetylcholine iodate as substrate preincubated for 10 mins followed by substrate addition by Lineweaver-Burk plot analysis

Acetylcholinesterase [2] = biological target: T1, Acetylcholinesterase; remark: listed apart in the source
Description: Inhibition of AChE (unknown origin) using acetylcholine iodate as substrate preincubated for 10 mins followed by substrate addition by Ellman's method

Acetylcholinesterase [3] = biological target: Acetylcholinesterase (Electrophorus electricus, UniProt O42275)
Sequence of Acetylcholinesterase (Electrophorus electricus, UniProt O42275) (O42275 whole entry): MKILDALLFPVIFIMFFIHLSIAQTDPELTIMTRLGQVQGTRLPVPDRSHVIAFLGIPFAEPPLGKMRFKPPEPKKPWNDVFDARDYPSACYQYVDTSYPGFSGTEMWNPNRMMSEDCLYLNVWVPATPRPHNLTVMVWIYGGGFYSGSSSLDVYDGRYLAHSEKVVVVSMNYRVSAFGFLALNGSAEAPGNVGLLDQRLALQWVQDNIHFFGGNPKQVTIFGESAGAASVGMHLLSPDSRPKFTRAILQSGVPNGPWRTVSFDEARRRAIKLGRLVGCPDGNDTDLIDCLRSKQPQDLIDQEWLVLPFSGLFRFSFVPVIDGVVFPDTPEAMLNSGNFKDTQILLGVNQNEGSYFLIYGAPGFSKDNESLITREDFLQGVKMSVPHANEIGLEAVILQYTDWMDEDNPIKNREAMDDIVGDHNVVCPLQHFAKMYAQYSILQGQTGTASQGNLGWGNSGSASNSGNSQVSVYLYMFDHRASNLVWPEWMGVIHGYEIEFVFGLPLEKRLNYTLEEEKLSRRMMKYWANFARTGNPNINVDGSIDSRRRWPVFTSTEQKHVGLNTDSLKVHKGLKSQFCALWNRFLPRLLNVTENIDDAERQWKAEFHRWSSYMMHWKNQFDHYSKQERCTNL
Description: Inhibition of electric eel AChE using acetylthiocholine iodide as substrate preincubated for 10 mins followed by substrate addition by Lineweaver-Burk plot analysis

T1 sequence (P22303 whole entry): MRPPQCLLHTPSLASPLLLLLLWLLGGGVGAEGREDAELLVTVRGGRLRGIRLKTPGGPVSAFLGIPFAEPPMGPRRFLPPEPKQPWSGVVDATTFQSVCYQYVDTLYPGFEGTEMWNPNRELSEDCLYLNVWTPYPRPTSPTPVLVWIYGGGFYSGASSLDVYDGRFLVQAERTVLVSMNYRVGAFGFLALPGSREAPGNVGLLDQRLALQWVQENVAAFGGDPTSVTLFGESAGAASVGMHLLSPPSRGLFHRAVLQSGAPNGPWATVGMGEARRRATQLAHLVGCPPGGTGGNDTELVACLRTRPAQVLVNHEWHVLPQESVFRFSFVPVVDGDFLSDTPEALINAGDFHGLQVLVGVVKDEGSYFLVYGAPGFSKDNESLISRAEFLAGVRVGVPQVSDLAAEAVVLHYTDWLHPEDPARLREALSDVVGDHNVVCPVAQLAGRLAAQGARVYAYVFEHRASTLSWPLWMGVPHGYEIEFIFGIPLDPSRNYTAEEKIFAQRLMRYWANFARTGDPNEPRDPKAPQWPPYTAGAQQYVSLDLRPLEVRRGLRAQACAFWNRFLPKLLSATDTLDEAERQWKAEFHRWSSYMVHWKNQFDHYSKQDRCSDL

SMILES | Ki (Acetylcholinesterase [1]) | IC50 (Acetylcholinesterase [2]) | Ki (Acetylcholinesterase [3])
CN(C)C(=O)N[C@H]1CCc2ccc(O)cc2C1 | 1.74 nM | 103 nM | 
CN(C)S(=O)(=O)NC1CCc2c(O)cccc2C1 (stereo not drawn) | 1.34 nM | 30.9 nM | 
CN(C)S(=O)(=O)NC1CCc2ccc(O)cc2C1 (stereo not drawn) | 0.72 nM | 37 nM | 
COc1ccc2c(c1)CC(NS(=O)(=O)N(C)C)CC2 (stereo not drawn) | 0.83 nM | 15.8 nM | 
COc1ccc2c(c1)CCC(NC(=O)N(C)C)C2 (stereo not drawn) | 0.67 nM | 16.4 nM | 
CN(C)S(=O)(=O)N[C@H]1CCc2cc(O)ccc2C1 | 1.22 nM | 27.9 nM | 
COc1ccc2c(c1)C[C@@H](NC(=O)N(C)C)CC2 | 1.06 nM | 22.4 nM | 
COc1ccc2c(c1)CCC(NS(=O)(=O)N(C)C)C2 (stereo not drawn) | 1.05 nM | 17 nM | 
Oc1ccc(O)cc1 [HYDROQUINONE] |  |  | 1.22 nM
COc1cccc2c1CC[C@H](NC(=O)N(C)C)C2 | 0.98 nM | 19.9 nM | 
CN(C)C(=O)NC1CCc2cc(O)ccc2C1 (stereo not drawn) | 1.33 nM | 7.16 nM | 
CN(C)C(=O)N[C@H]1CCc2c(O)cccc2C1 | 1.59 nM | 132 nM | 
